Measurements published in US4973591A, “Parenteral formulations of 1-diphenylmethyl-4-((2-(4-methylphenyl)-5-methyl-1H-imidazol-4-yl)methyl )piperazine” (Syntex Pharmaceuticals, Ltd., priority 1988, dated 1990).
Where a name gives a salt, the structure may show the parent alone.

How the values were obtained:
pH of salt solutions = type: physicochemical
calcium channel = details: statement in background; cited from earlier work
[1] = solubility of active agent, its salts and cosolvent solutions; details: for solubility (in words): salts of the active agent
[2] = precipitation on dropping the injectable formulation into pH 7.4 phosphate buffer; type: physicochemical; details: approx. 1 ml injectable formulation into 50 ml 0.1M pH 7.4 phosphate buffer
rat tail vein = rat tail vein injection (irritation / in vivo acceptability)
Method: In vivo acceptability is tested by injecting a small amount of the formulation into the tail vein of a rat or other suitable species, for example, as described by Waynforth, Experimental and Surgical Technique in the Rat, Chapter 2, pages 42-45 (Academic Press, 1980).
This procedure is a modification of a procedure described by Waynforth in Experimental and Surgical Technique in the Rat, Chapter 2, pages 42-45 (Academic Press, 1980). The rat tail vein is dilated by warming, and a test formulation administered by injection, using a 25G needle, with the rat held in a restrainer, and a heat source close enough to keep the tail warm during injection. The tail is observed for signs of irritation, which are outwardly apparent and can be detected by the presence of bruising, swelling, lack of flexibility, lumps, or by observation of distress in the animal upon subsequent administration.

[3] = stability testing of formulations at 25° C. (content, pH, appearance); type: physicochemical
Method: Stability testing of the formulations is done, for example, as described in Remington's Pharmaceutical Sciences. […] A formulation is prepared and placed in suitable container, storing it at 25° C., and periodically observing the appearance of the samples and removing aliquots to be tested for concentration and pH.
At periodic intervals, the appearance of the samples was noted, and aliquots were withdrawn and assayed for active agent concentration and pH.

[4] = compatibility with infusion fluids; type: physicochemical; details: wide range of commercially available infusion fluids
Method: Compatibility with infusion fluids is determined by adding a formulation of the invention to an infusion fluid and inspecting the resulting mixture for formation of any precipitate, discoloration, or the appearance of other physical changes, monitoring the solution active ingredient concentration to ensure no loss in potency, which could lead to decreases in efficacy.

[5] = in vivo; cited from earlier work

With `Cc1ccc(-c2nc(CN3CCN(C(c4ccccc4)c4ccccc4)CC3)c(C)[nH]2)cc1` the “pH relative to optimum range for physiological compatibility” value (pH of salt solutions; when prepared at the desired concentrations) was “outside the optimum pH range for physiological compatibility”.

In the case of `Cc1ccc(-c2nc(CN3CCN(C(c4ccccc4)c4ccccc4)CC3)c(C)[nH]2)cc1` [1-Diphenylmethyl-4-[(2-(4-methylphenyl)-5-methyl-1H-imidazol-4-yl)methyl]piperazine], the calcium channel antagonist (calcium channel) is listed as “potent calcium channel antagonist” and the solubility problems ([1]; particularly at physiological pH, in formulation process and upon administration to test animals) is listed as “significant solubility problems”.

In the case of `Cc1ccc(-c2nc(CN3CCN(C(c4ccccc4)c4ccccc4)CC3)c(C)[nH]2)cc1.Cl.Cl.Cl` [1-diphenylmethyl-4-[(2-(4-methylphenyl)-5-methyl-1H-imidazol-4-yl)methyl]piperazine, trihydrochloride], the precipitate at interface [2] is reported as “a white precipitate was observed immediately at the interface between the two liquids”, the “signs of pain / irritation upon injection” value (rat tail vein; 8 mg/ml solution, pH about 3-3.5, rat tail vein) is reported as “bruising of the vein, hardening of the tail and other signs of pain upon injection” and the “compound precipitation in rat tail veins” value (rat tail vein; 8 mg/ml solution, pH about 3-3.5 adjusted with sodium hydroxide, shortly after injection) is reported as “compound precipitation was observed in rat tail veins shortly after injection”.

In the case of `Cc1ccc(-c2nc(CN3CCN(C(c4ccccc4)c4ccccc4)CC3)c(C)[nH]2)cc1` [ascorbic acid salt], the “solubility (in words)” value [1] is reported as “relatively insoluble” and the “discolouration of solutions upon standing” value ([3]; solutions of ascorbic acid salt, on standing) is reported as “rapid discolouration upon standing”.

With `Cc1ccc(-c2nc(C)c(CN3CCN(C(c4ccccc4)c4ccccc4)CC3)[nH]2)cc1` [aspartic] the “changes in properties of salts” value ([1]; salts investigated for adequate solubility at physiologically acceptable pH and reduced irritancy) was “only moderate changes in properties”.

In the case of `Cc1ccc(-c2nc(C)c(CN3CCN(C(c4ccccc4)c4ccccc4)CC3)[nH]2)cc1` [malonic], the “solubility (in words)” value [1] is reported as “did not have adequate solubility”.

With `Cc1ccc(-c2nc(C)c(CN3CCN(C(c4ccccc4)c4ccccc4)CC3)[nH]2)cc1` [oxalic] the “solubility (in words)” value [1] was “did not have adequate solubility”.

In the case of `Cc1ccc(-c2nc(CN3CCN(C(c4ccccc4)c4ccccc4)CC3)c(C)[nH]2)cc1` [sulfuric acid salt], the pH in solution (pH of salt solutions) is reported as 1.76.

With `Cc1ccc(-c2nc(CN3CCN(C(c4ccccc4)c4ccccc4)CC3)c(C)[nH]2)cc1.O=C(O)C(O)C(O)C(=O)O` [tartrate salt, 1-diphenylmethyl-4-[(2-(4-methylphenyl)-5-methyl-1H -imidazol-4-yl)methyl]piperazine tartrate] the “compatibility with infusion fluids” value [4] was “compatible with a wide range of commercially available infusion fluids”, the “administration over 28 days” value (baboons) was “successful administration” and the “administration over 28 days” value (rats) was “successful administration”. The solubility (physchem) was greater than 4000 µg/mL, the irritancy levels (rat tail vein; one week tail vein injection trial) was “Acceptable irritancy levels” and the pH in solution (pH of salt solutions) was “greater than 3.0”. The “physical and chemical stability of the solution” value ([3]; storage at 25° C.) was “at least 12 months”.

For `Clc1ccccc1CN1CCc2sccc2C1` [ticlopidine], the “reduction of the risk of a second ischemic event” value [5] is listed as “demonstrated to reduce the risk of a second ischemic event”.
